Measured values taken from patent publication US20110039848A1, “FIVE-MEMBERED RING COMPOUND” (priority 2008, published 2011).

Key:
[1] = test system: Guinea Pig Late Asthma Model; test: Assessment of compounds in guinea pig late asthma model; type: in vivo; details: 3 mg/kg orally one hour before antigen challenge
Procedure: Assessment of Compounds in Guinea Pig Late Asthma Model
The assessment was carried out using a compound obtained in Example 1.
Hartley male guinea pigs (commercially available from Japan SLC, Inc.) were pre-bred about 1 week after arrival, and then exposed by inhalation to 2% (w/v) ovalbumin (OA) saline in a plastic box (4 guinea pigs/box) for 5 minutes using a ultrasonic nebulizer (OMRON NE-U12, condition: maximum nebulizing amounts, maximum air volume), and sensitized (day 0). The same operation was carried out on day 7. On day 14 or 15, each guinea pig was administered 2% OA by inhalation for 5 minutes to initiate a response (challenge). […]
A determination and analysis of respiratory function were carried out according to the method of Penny A. Hutson et al. Am Rev Respir Dis 1988 137, 548-557. The respiratory function was determined before the antigen challenge (before drug administration) and 5 minutes and 1, 2, 3, 4, 5, 6, 7 and 8 hours after the antigen challenge, and wave profiles were imported using MacLab Chart v3.4 (AD Instruments) and analyzed later. […] The sRaw/TV values subtracting the former values were plotted against measured times, and each area under the curve (AUC4-8hr) of each animal was calculated to compare each other in the range of 4 to 8 hours after the antigen challenge. […]

rat lung membrane SMBS = test: Receptor-binding assessment test of compounds using rat lung membranes ([125I]-iodocyanopindolol ligand binding assay); details: ratio of inhibiting specific binding of [125I]-iodocyanopindolol to rat lung membrane SMBS; test compound 1 μM
Procedure: Receptor-Binding Assessment Test of Compounds Using Rat Lung Membranes
The assessment test was carried out according to the method of Sugasawa, T. et al., J. Biol. Chem., 272, 21244-21252 (1997).
Preparation of Rat Lung Membranes
Lung taken out from SD male rat (7-week old under test, Charles River Laboratories Japan, Inc.) was removed trachea and blood vessels to shred and washed with iced tris-saline buffer (10 mM tris hydrochloric acid-154 mM sodium chloride, pH7.4). The resultant was homogenized by Hiscotron with ice-cold tris-saline buffer containing a homogenization buffer (1 mM ethylenediaminetetraacetic acid (EDTA), 1 mM 4-(2-aminoethyl)benzenesulfonyl fluoride (AEBSF), 5 μg/ml aprotinin, 5 μg/ml leupeptine) (maximum rate: 1 minute). The supernatant after low-speed centrifugation (1500×g, 20 minutes, 4° C.) was ultracentrifuged (100000×g, 20 minutes, 4° C.), and the pellet was suspended in tris-saline buffer to store at −80° C. The protein concentrations were determined by Bio-Rad Protein Assay Kit using bovine serum albumin (BSA) as a standard.
To each well in protein-nonabsorptive round-bottom 96-well assay plate (commercially available from Iwaki Glass Co., Ltd.) were added tris-saline buffer (200 μl) containing 1 nM [^125I]-iodocyanopindolol (commercially available from Amersham plc), 10 μM serotonine, 20 μm dl-propranolol, 10 μM phentolamine, 1.1 mM ascorbic acid and 100 μg lung membrane, and the mixture was pipetted to combine and then incubated at 37° C. for 30 minutes. The test compounds were dissolved in 100% dimethyl sulfoxide solution, and thereto was added 2 μl (final DMSO concentration: 1%). In order to calculate nonspecific binding amounts, to the mixture was added L-threo-3-(3,4-dihydroxyphenyl)-N-[3-(4-fluorophenyl)propyl]serine pyrrolidine amide at 100 μM of the final concentration as an alternative to the test compounds. During this time, 100 μl of 0.3% polyethyleneimine (PEI)/tris-saline buffer was added to MultiScreen plate (96-well B glass fiber, Millipore Cat. No. MAFB NOB10), and incubated for over 30 minutes. The resultant was filtered with aspiration (aspiration by the addition of 200 μl iced tris-saline buffer) to wash, and the reaction solutions on 96-well assay plate were filtered with aspiration to wash four times on MultiScreen plate. B glass fiber filter paper at the bottom of MultiScreen plate was punched out, and γ-ray doses of [^125I]-iodocyanopindolol trapped on the filter paper were determined as binding amounts. The binding amounts in the presence of DMSO (final concentration: 1%) were total binding amounts, and the binding amounts in the presence of 100 μM L-threo-3-(3,4-dihydroxyphenyl)-N-[3-(4-fluorophenyl)propyl]serine pyrrolidine amide were nonspecific binding amounts. The values subtracted the nonspecific binding amounts from the total binding amounts were the specific binding amounts. The binding activity of a compound was calculated according to the following formula, which was shown in the ratio of inhibiting the specific binding of [^125I]-iodocyanopindolol to rat lung membrane SMBS by the test compound.

[2] = test system: Corticosterone generation; test: Assessment test of steroid hormone synthesis inhibition (Corticosterone generation in rat adrenal gland cells stimulated with cAMP); type: cell-based; details: inhibition rate of 10 μM test article to Corticosterone generation, 2 hours with cAMP
Procedure: Assessment Test of Steroid Hormone Synthesis Inhibition
Control examples 1 to 4: Control example 1 was Example 350 of Patent Document 2. Control examples 2 to 4 were synthesized according to Patent Document 2.
Adrenal glands were taken out from rats, and removed excess connective tissues, adiposes and membranes in D-MEM. The adrenal glands were transferred to polytubes, and quickly segmentalized with scissors. Thereto was added D-MEM containing 1 mg/mL collagenase and […] DNase I, and then the mixture was shaken at 37° C. for 10 minutes in 80 times/minute. Then, the mixture was pipetted by 1 mL truncated pipette tip, and shaken again under the same condition. After 10 minutes, the mixture was pipetted again by 1 mL pipette tip, and the cell suspension was filtered through metal mesh. The filtrate was centrifuged at 4° C. for 5 minutes in 500 g. The supernatant was removed, and thereto was added a mixed solution of 0.16 M NH4Cl and 0.17 M Tris-HCl in 3 mL. The mixture was let stand on ice for 5 minutes, and then centrifuged under the same condition. Then, the supernatant was removed and then thereto was added D-MEM. The cell suspension was prepared and centrifuged under the same condition. Again, the supernatant was removed and then thereto was added D-MEM to give a cell suspension. The cell suspension was filtered by Cell Strainer (BD Falcon®). The filtrate was centrifuged under the same condition. After the completion of the centrifugation, the supernatant was removed, and thereto was added D-MEM containing 1% Penicillin Streptomycin Mixed Solution and 10% FBS. The mixture was seeded in Multiple well plate for adhesive cell culture, 96 wells (IWAKI) in 10000 cells/well, and incubated at 37° C. overnight in CO2 incubator.
Test article concentrations were prepared in DMSO to 2000 μM, and D-MEM containing 20 μM test article in D-MEM was prepared.
Cell-seeded plate was incubated overnight, and then the medium was removed and thereto was added D-MEM containing 20 μM test article in 50 μL/well. Then, to the mixture was promptly added D-MEM containing 20 μM cAMP in 50 μL/well so that the final concentration of the test article was 10 μM. After the addition of 2 types of D-MEM, the mixture was incubated at 37° C. for 2 hours in CO2 incubator. After 2 hours, the supernatant (50 μL) of the medium was collected. For cells, the cell toxicity of the test article was assessed according to a conventional method using Cell Titer-Glo® (Promega). For the collected supernatant, the Corticosterone concentration in the supernatant was determined according to a conventional method using Corticosterone EIA kit (Cayman).
The inhibition rate of 10 μM test article to Corticosterone generation was calculated according to the following formula confirming that the cell toxicity by the test article was not recognized.

Structure (SMILES)	Binding Activity (%) (1 μM) (rat lung membrane SMBS)	AUC4-8 hr ((sRaw/TV) · h) ([1]; OA-sensitized Hartley male guinea pigs, 4 to 8 hours after challenge)	Improvement Rate (%) ([1]; versus control group (0.5% MC), AUC4-8hr, p<0.01 Dunnett's test)	inhibition at 10 µM [2]
CCNC(=O)NCCn1c(-c2ccc(N3CCOCC3)nn2)cs/c1=N\c1ccc(F)cc1 [Example 7]	82%			15%
CCNC(=O)NCCn1c(-c2ccc(N3CCOCC3)nn2)cs/c1=N\c1ccc(Cl)cc1 [Example 11]	88%			-8%
CNC(=O)NCCn1c(-c2ccc(N3CCOCC3)nn2)cs/c1=N\c1cncc(C(F)(F)F)c1 [Example 15]	89%			11%

The next lines start with results.

Binding Activity (%) (1 μM) (rat lung membrane SMBS)	Structure (SMILES)	AUC4-8 hr ((sRaw/TV) · h) ([1]; OA-sensitized Hartley male guinea pigs, 4 to 8 hours after challenge)	Improvement Rate (%) ([1]; versus control group (0.5% MC), AUC4-8hr, p<0.01 Dunnett's test)	inhibition at 10 µM [2]
103%	CNC(=O)NCCn1c(-c2ccc(N3CCOCC3)nn2)cs/c1=N\c1cccc(F)c1 [Example 1, N-{2-[(2Z)-2-[(3-Fluorophenyl)imino]-3-[6-(morpholin-4-yl)pyridazinyl]-1,3-thiazol-3(2H)-yl]ethyl}-N′-methylurea]	0.411 (sRaw/TV) · h	47%	-2%
75%	CNC(=O)NCCn1c(-c2ccc(N3CCOCC3)nn2)cs/c1=N\c1ccccc1F [Example 2]			-8%
83%	CCNC(=O)NCCn1c(-c2ccc(N3CCOCC3)nn2)cs/c1=N\c1cccc(F)c1 [Example 5]			-28%
93%	CNC(=O)NCCn1c(-c2ccc(N3CCOCC3)nn2)cs/c1=N\c1ccccc1Cl [Example 8]			-12%
